We go through eleven compounds from US20010049441A1, “Azaindoles having serotonin receptor affnity” (Allelix Biopharmaceuticals, Inc., priority 1999, published 2001).

As usually defined, the inhibition is the change of the read-out against control, counted positive when it falls.

T1 sequence (P50406 whole entry): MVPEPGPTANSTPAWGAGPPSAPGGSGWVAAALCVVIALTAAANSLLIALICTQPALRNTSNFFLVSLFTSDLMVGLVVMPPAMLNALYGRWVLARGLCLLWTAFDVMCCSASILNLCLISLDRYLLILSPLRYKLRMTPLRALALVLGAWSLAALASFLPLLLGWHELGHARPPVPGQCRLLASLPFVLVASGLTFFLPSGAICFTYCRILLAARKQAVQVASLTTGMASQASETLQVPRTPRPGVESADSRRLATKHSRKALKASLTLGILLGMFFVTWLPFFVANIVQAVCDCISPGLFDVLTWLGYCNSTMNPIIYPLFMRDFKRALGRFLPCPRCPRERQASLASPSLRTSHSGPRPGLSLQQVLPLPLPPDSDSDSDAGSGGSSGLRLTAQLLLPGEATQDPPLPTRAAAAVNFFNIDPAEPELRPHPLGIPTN

One assay concerns the target T1, 5-HT6 receptor (Homo sapiens, UniProt P50406).
T1 construct: expressed in transfected cells
As to the kind of experiment: Functional assay: serotonin-induced adenyl cyclase activity (cAMP) in HEK 293 cells. It counts as cell-based. The settings on record: HEK 293 cells stably expressing human 5HT6 receptor; test compound (100 nM and 10 μM) along with serotonin; cAMP by EIA. The procedure:
The 5HT6 receptor responds to serotonin and other agonists by increasing adenyl cyclase mediated production of cyclic AMP. Particular test compounds were assayed for their effect on adenyl cyclase activity using the procedure described below.
Compounds acting as antagonists at the 5HT6 receptor will antagonize the agonist effect of serotonin and thus, will block the serotonin-induced increase in adenyl cyclase activity.
HEK 293 cells stably expressing the human 5HT6 receptor were plated in 6 well plates in DMEM (Dulbecco's Modified Eagle Medium)/F12 (Nutrient Mixture F12—Ham) media with 10% FCS (fetal calf serum) and G418 (Geneticen Disulfate, 500 ug/ml), and incubated at 37° C. in a CO2 incubator. The cells were allowed to grow to about 70% confluence before use in the assay.
The culture medium of each well was removed, and the wells were washed once with serum free media. Then 2 ml of SFM+IBMX medium (SFM with 0.5 mM IBMX, 3-isobutyl-1-methylxanthine, 0.1% ascorbic acid and 10 mM pargyline) was added to each well and the wells were incubated at 37° C. for 10 min. Following incubation, the SFM+IBMX medium was removed from each well and fresh SFM+IBMX media was added to the wells separately with one of a) serotonin (1 μM final concentration); b) test compound (100 nM and 10 μM, to test for agonist activity); and c) test compound (100 nM and 10 μM) along with serotonin ([…], to test for antagonist activity). Basal adenyl cyclase activity was determined from wells with only SFM+IBMX media added.
The cells were then incubated at 37° C. for 30 minutes in a CO2 incubator. […] The pellets were discarded and the supernatants were stored at 4° C. until assayed for cAMP concentration. cAMP content for each extract was determined in duplicate by EIA (enzyme-immunoassay) using the Amersham Biotrak cAMP EIA kit (Amersham RPN 225). Final results were expressed as %basal response for agonists and % reversal of serotonin response for antagonists.
The total stimulation of adenyl cyclase by serotonin (So) was determined as the difference in concentration of cAMP in the serotonin-treated cells (Cd) and the basal-treated cells (Cf).
The net stimulation (S) of basal adenyl cyclase by an agonist test compound was determined as the difference in cAMP concentration in the drug-treated cell (C) and the basal-treated cells (Cf).
The net stimulation (Ss) of basal adenyl cyclase by serotonin in the presence of an antagonist test compound was determined as the difference in cAMP concentration in the serontonin-drug-treated cells (Cs) and the basal-treated cells (Cf).
The ability of the antagonist test compound to reverse the serotonin stimuation of adenyl cyclase activity (% reversal, %R) was determined by the formula: […]
Turning to `O=S(=O)(c1cccc2ccccc12)n1cc(C2=CCN3CCCC3C2)c2cnccc21` (stereo not shown) [3-(1,2,3,5,8,8a-Hexahydro-7-indolizinyl)-1-(1-naphthalenesulfonyl)-5-azaindole], the “reversal of serotonin stimulation of adenyl cyclase (5-HT6 receptor antagonist behaviour)” value (“reversal” below) is listed as “able to reverse the serotonin stimulation of adenyl cyclase”.

Take `O=S(=O)(c1cccc2ccccc12)n1cc(C2=CCN3CCCC3C2)c2cccnc21` (stereo not shown) [3-(1,2,3,5,8,8a-Hexahydro-7-indolizinyl)-1-(1-naphthalenesulfonyl)-7-azaindole]: the “reversal” value was “able to reverse the serotonin stimulation of adenyl cyclase”. For the compound `O=S(=O)(c1ccccc1)n1cc(C2=CCN3CCCC3C2)c2cnccc21` (stereo not shown) [3-(1,2,3,5,8,8a-Hexahydro-7-indolizinyl)-1-benzenesulfonyl-5-azaindole], the “reversal” value is recorded as “able to reverse the serotonin stimulation of adenyl cyclase”. As to `O=S(=O)(c1ccccc1)n1cc(C2=CCN3CCCC3C2)c2cccnc21` (stereo not shown) [3-(1,2,3,5,8,8a-Hexahydro-7-indolizinyl)-1-benzenesulfonyl-7-azaindole], the “reversal” value was “able to reverse the serotonin stimulation of adenyl cyclase”.

The next assay deals with T1, 5-HT6 receptor. Put plainly: Binding affinity for the 5-HT6 receptor (3H-LSD displacement, membranes of recombinant cells). As to conditions: 100 nM of test compound; 3H-LSD (2 nM); 60 minute incubation at 37° C.; read-out: percent inhibition of binding of the radioligand for the 5-HT6 receptor. The procedure: All of the compounds of the invention were evaluated using cell types receptive specifically to the 5-HT6 receptor (for cloning and characterization of the human 5-HT6 receptor see Kohen, et al. J. Neurochemistry, 66, 1996: 47-56). The assay protocol generally entailed the incubation of membranes prepared from cells expressing the 5-HT6 receptor with ^3H-LSD (2 nM). Increasing levels of the test compound were incubated with the radioligand and the membrane homogenates prepared from the recombinant cells. After a 60 minute incubation at 37° C., the incubation was terminated by vacuum filtration. The filters were washed with buffer and the filters were counted for radioactivity using liquid scintillation spectrometry. The affinity of the test compound for the 5-HT6 receptor was determined by computer-assisted analysis of the data and determining the amount of the compound necessary to inhibit 50% of the binding of the radioligand to the receptor. Concentrations ranging from 10^−11 M to 10^−5 M of the test compound were evaluated. […] Affinity for the 5-HT6 receptor is expressed as the amount (in percent) of binding of the radioligand that is inhibited in the presence of 100 nM of test compound. A greater percent inhibition indicates greater affinity for the 5-HT6 receptor.
On to `O=S(=O)(c1cccc2ccccc12)n1cc(C2CCN3CCCC3C2)c2ccncc21` (single isomer, unassigned) [3-(Octahydro-7-indolizinyl)-1-(1-naphthalenesulfonyl)-6-azaindole], for which the inhibition at 0.1 µM is more than 80%.

Regarding `O=S(=O)(c1ccc2ccccc2c1)n1cc(C2CCN3CCCC3C2)c2cccnc21` (single isomer, unassigned) [3-(Octahydro-7-indolizinyl)-1-(2-naphthalenesulfonyl)-7-azaindole], the inhibition at 0.1 µM was more than 80%. Consider `O=C(c1c(Cl)cccc1Cl)n1cc(C2=CCN3CCCC3C2)c2cccnc21` (stereo not shown) [1-(2,6-Dichlorobenzoyl)-3-(1,2,3,5,8,8a-hexahydro-7-indolizinyl)-7-azaindole], for which the inhibition at 0.1 µM is more than 80%. `O=S(=O)(c1cccc2ccccc12)n1cc(C2=CCN3CCCC3C2)c2cnccc21` (stereo not shown) [3-(1,2,3,5,8,8a-Hexahydro-7-indolizinyl)-1-(1-naphthalenesulfonyl)-5-azaindole]: the inhibition at 0.1 µM was more than 95%. Turning to `O=S(=O)(c1ccc2ccccc2c1)n1cc(C2=CCN3CCCC3C2)c2cccnc21` (stereo not shown) [3-(1,2,3,5,8,8a-Hexahydro-7-indolizinyl)-1-(2-naphthalenesulfonyl)-7-azaindole], the inhibition at 0.1 µM is more than 90%.

Regarding `Cc1ccc(S(=O)(=O)n2cc(C3=CCN4CCCC4C3)c3cnccc32)cc1` (stereo not shown) [3-(1,2,3,5,8,8a-Hexahydro-7-indolizinyl)-1-(4-methylbenzenesulfonyl)-5-azaindole], the inhibition at 0.1 µM is more than 80%.

Consider `O=S(=O)(c1ccccc1)n1cc(C2=CCN3CCCC3C2)c2cnccc21` (stereo not shown) [3-(1,2,3,5,8,8a-Hexahydro-7-indolizinyl)-1-benzenesulfonyl-5-azaindole], for which the inhibition at 0.1 µM was more than 90%. In the case of `O=S(=O)(c1cccc2ccccc12)n1cc(C2CCN3CCCC3C2)c2ncccc21` (stereo not shown) [3-(Octahydro-7-indolizinyl)-1-(1-naphthalenesulfonyl)-4-azaindole], the inhibition at 0.1 µM is more than 80%. For the compound `O=S(=O)(c1ccc2ccccc2c1)n1cc(C2CCN3CCCC3C2)c2ncccc21` (stereo not shown) [3-(Octahydro-7-indolizinyl)-1-(2-naphthalenesulfonyl)-4-azaindole], the inhibition at 0.1 µM was more than 95%.
